According to ChEMBL document CHEMBL3351770, “Synthesis, antioxidant and cytoprotective evaluation of potential antiatherogenic phenolic hydrazones. A structure-activity relationship insight” (Bioorg Med Chem, 2014):

Key:
[1] = Antioxidant activity assessed as DPPH radical scavenging activity by UV-Visible spectrophotometry; assay type: physicochemical
[2] = Cytoprotection in mouse CRL2181 cells assessed as reduction in UV-oxidized LDL-induced cytotoxicity by measuring cell viability at 10 uM after 24 hrs by MTT assay relative to untreated control; assay type: functional
[3] = Cytoprotection in mouse CRL2181 cells assessed as reduction in UV-oxidized LDL-induced cytotoxicity by measuring cell viability at 1 uM after 24 hrs by MTT assay relative to untreated control; assay type: functional
[4] = Antioxidant activity assessed as reduction in mouse CRL2181 cells-mediated human LDL oxidation by measuring TBARS level at 1 uM after 18 hrs; assay type: physicochemical, cell-based; conditions: read-out: Activity
[5] = Antioxidant activity assessed as reduction in mouse CRL2181 cells-mediated human LDL oxidation by measuring TBARS level at 10 uM after 18 hrs; assay type: physicochemical, cell-based; set-up: scale not given: the % may be the effect or the level left
[6] = Antioxidant activity assessed as superoxide anion radical scavenging activity at 10 uM by PMS-NADH-NBT system based spectrophotometry; assay type: physicochemical

| IC50 [1] [µM] | Activity [5] [%] | Activity [6] [%] | SMILES | Activity [2] [%] | Activity [3] [%] | inhibition at 1 µM [4] [%] |
| --- | --- | --- | --- | --- | --- | --- |
| 28 | 4 | – | COc1cc(/C=N/Nc2nncc3ccccc23)cc(OC)c1O | 66 | 46 | 38 |
| 60.5 | 3 | – | COc1cc(/C=N/NC(=O)OCc2ccccc2)cc(OC)c1O | 69 | 45 | 38 |
| – | 3 | 35 | COc1cc(/C=N/Nc2nc3ccccc3s2)cc(OC)c1O | 55 | 39 | 36 |
| 17 | 7 | – | COc1cc(/C=N/NC(=O)c2ccncc2)cc(OC)c1O | 65 | 34 | 48 |
| – | 7 | – | COc1cc(/C=N/Nc2nc3ccccc3s2)ccc1O | 61 | 44 | 65 |
| > 1000 | 94 | – | COc1cc(/C=N/NC(=O)c2ccncc2)cc(OC)c1OC | 4 | 4 | 95 |
| 12.9 | 5 | – | COc1cc(/C=N/N2C(=O)CSC2=S)ccc1O | 72 | 34 | 66 |
| 40.2 | 93 | – | COc1cc(/C=N/Nc2nncc3ccccc23)cc(OC)c1OC.Cl | 5 | 6 | 96 |
| – | 3 | 36.7 | COc1cc(/C=N/Nc2nncc3ccccc23)cc(O)c1O.Cl | 97 | 69 | 27 |
| 19.9 | 4 | – | COc1cc(/C=N/Nc2nncc3ccccc23)ccc1O.Cl | 100 | 24 | 46 |
| 6.7 | 3 | – | Cl.Oc1ccc(/C=N/Nc2nncc3ccccc23)cc1O | 72 | 34 | 51 |
| 18.4 | 8 | – | COc1cc(/C=N/NC(=O)c2ccncc2)cc(O)c1O | 80 | 41 | 59 |
| 6.1 | 4 | – | O=C(N/N=C/c1ccc(O)c(O)c1)c1ccncc1 | 101 | 84 | 19 |
| 15.3 | 82 | – | COc1cc(/C=N/NC(=O)c2ccncc2)c(O)cc1O | 20 | 18 | 87 |
| > 1000 | 100 | – | COc1cc(/C=N/NC(=O)OCc2ccccc2)cc(OC)c1OC | 4 | 5 | 95 |
| 21.3 | 2 | 41.4 | COc1cc(/C=N/NC(=O)OCc2ccccc2)cc(O)c1O | 57 | 34 | 17 |
| 39.7 | 36 | – | COc1cc(/C=N/NC(=O)OCc2ccccc2)ccc1O | 73 | 73 | 75 |
| 7.3 | 6 | – | O=C(N/N=C/c1ccc(O)c(O)c1)OCc1ccccc1 | 84 | 48 | 27 |

| IC50 [1] [µM] | Activity [5] [%] | Activity [6] [%] | SMILES | Activity [2] [%] | Activity [3] [%] | inhibition at 1 µM [4] [%] |
| --- | --- | --- | --- | --- | --- | --- |
| > 1000 | 104 | – | O=C(N/N=C/c1ccccc1O)OCc1ccccc1 | 34 | 24 | 106 |
| 13.5 | 6 | – | COc1cc(/C=N/NC(=O)OCc2ccccc2)c(O)cc1O | 79 | 43 | 74 |
| 119 | 5 | – | COc1cc(/C=N/N(C)C(=O)OCc2ccccc2)cc(OC)c1O.Cl | 64 | 55 | 10 |
| > 7.1 | 90 | – | COc1cc(/C=N/N(C)C(=O)OCc2ccccc2)cc(OC)c1OC.Cl | 6 | 6 | 98 |
| 26.2 | 5 | – | COc1cc(/C=N/N(C)C(=O)OCc2ccccc2)ccc1O.Cl | 71 | 41 | 58 |
| 43.1 | 14 | 34 | COc1cc(/C=N/Nc2nc3ccccc3s2)cc(OC)c1OC | 57 | 4 | 100 |
| – | 7 | 41.7 | Oc1ccc(/C=N/Nc2nc3ccccc3s2)cc1O | 57 | 33 | 44 |
| 6.8 | 7 | – | COc1cc(/C=N/Nc2nc3ccccc3s2)cc(O)c1O | 54 | 38 | 56 |
| – | 3 | 43.3 | COc1cc(/C=N/N(C)c2nc3ccccc3s2)cc(OC)c1O | 110 | 107 | 5 |
| > 1000 | 82 | – | COc1cc(/C=N/N(C)c2nc3ccccc3s2)cc(OC)c1OC | 7 | 7 | 84 |
| 26.6 | 9 | – | COc1cc(/C=N/N(C)c2nc3ccccc3s2)ccc1O | 96 | 96 | 20 |
| 11.8 | 5 | – | COc1cc(/C=N/N2C(=O)CSC2=S)cc(OC)c1O | 85 | 53 | 59 |
| 13.1 | 5 | – | O=C1CSC(=S)N1/N=C/c1ccccc1O | 87 | 26 | 79 |
| – | 55 | – | Cc1c(C)c2c(c(C)c1O)CC[C@@](C)(CCC[C@H](C)CCC[C@H](C)CCCC(C)C)O2 [ALPHA-TOCOPHEROL] | 47 | – | 78 |
| – | – | 35.5 | O=C(/C=C/c1ccc(O)c(O)c1)O[C@@H]1C[C@](O)(C(=O)O)C[C@@H](O)[C@H]1O [CHLOROGENIC ACID] | – | – | – |
| 86 | 95 | – | COc1cc(/C=N/NC(=O)c2ccncc2)ccc1O [FTIVAZIDE] | 63 | 36 | 90 |
| > 1000 | 31 | – | O=C(N/N=C/c1ccccc1O)c1ccncc1 [SALINAZID] | 24 | 20 | 75 |
| 20.1 | 33 | 22.2 | Cc1c(C)c2c(c(C)c1O)CCC(C)(C(=O)O)O2 (stereo unspecified) [TROLOX] | 76 | 50 | 69 |
